Assay [1] addresses Epidermal growth factor receptor (Homo sapiens, UniProt P00533). Put plainly: In vitro inhibitory concentration against EGFR cytoplasmic sequence expressed in Sf9 cells.
Assay [2] deals with Receptor tyrosine-protein kinase erbB-2 (Homo sapiens, UniProt P04626). Put plainly: In vitro inhibitory concentration against HER2 cytoplasmic sequence expressed in Sf9 cells.
Assay [3] has as its target Mitogen-activated protein kinase 14 (Homo sapiens, UniProt Q16539). Put plainly: Inhibitory concentration against p38 cytoplasmic sequence; Reported as mean (variability <15%).
The target of assay [4] is Hepatocyte growth factor receptor (Homo sapiens, UniProt P08581). Put plainly: Inhibitory concentration against Met cytoplasmic sequence; Reported as mean (variability <15%).
For assay [5], the target named is Insulin-like growth factor 1 receptor (Homo sapiens, UniProt P08069). Put plainly: Inhibitory concentration against IGF-1R cytoplasmic sequence; Reported as mean (variability <15%).
The target of assay [6] is Focal adhesion kinase 1 (Homo sapiens, UniProt Q05397). Put plainly: Inhibitory concentration against FAK cytoplasmic sequence; Reported as mean (variability <15%).
Assay [7] concerns the target MAP kinase-activated protein kinase 2 (Homo sapiens, UniProt P49137). Put plainly: Inhibitory concentration against MAPKAP kinase 2 cytoplasmic sequence; Reported as mean (variability <15%).

The term IC50 denotes the point on the concentration scale where inhibition reaches its midpoint. Read a low IC50 as higher potency.

Chain of Epidermal growth factor receptor (P00533 whole entry): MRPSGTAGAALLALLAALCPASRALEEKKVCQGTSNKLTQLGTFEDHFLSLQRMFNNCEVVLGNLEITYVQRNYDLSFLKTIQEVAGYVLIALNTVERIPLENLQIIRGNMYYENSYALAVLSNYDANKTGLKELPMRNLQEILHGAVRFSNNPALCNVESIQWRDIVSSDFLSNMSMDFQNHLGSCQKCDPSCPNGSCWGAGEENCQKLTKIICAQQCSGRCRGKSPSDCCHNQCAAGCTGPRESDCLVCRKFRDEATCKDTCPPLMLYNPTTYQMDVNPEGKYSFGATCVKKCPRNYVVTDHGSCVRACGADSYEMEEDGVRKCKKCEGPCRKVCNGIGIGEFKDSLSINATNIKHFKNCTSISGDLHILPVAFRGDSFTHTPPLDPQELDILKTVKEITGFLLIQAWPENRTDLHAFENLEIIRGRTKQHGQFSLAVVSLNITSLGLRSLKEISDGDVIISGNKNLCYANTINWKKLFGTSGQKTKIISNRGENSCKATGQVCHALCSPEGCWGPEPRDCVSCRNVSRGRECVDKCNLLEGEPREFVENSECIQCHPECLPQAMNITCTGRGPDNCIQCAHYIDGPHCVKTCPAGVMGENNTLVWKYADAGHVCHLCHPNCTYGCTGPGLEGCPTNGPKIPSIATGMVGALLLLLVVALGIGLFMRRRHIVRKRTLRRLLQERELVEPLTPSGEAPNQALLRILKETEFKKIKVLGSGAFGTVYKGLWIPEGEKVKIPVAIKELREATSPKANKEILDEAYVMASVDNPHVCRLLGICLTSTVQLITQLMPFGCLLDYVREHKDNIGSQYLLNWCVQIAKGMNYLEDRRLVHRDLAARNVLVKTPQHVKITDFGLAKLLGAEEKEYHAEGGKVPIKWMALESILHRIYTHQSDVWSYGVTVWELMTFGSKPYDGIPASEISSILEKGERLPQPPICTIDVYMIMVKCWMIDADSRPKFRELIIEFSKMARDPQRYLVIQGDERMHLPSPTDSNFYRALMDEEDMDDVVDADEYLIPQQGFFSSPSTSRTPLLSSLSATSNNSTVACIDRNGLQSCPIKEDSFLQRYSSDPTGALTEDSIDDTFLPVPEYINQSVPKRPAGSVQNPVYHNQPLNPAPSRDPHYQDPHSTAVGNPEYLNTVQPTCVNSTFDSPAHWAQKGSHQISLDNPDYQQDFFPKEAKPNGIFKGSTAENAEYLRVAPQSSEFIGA
Chain of Receptor tyrosine-protein kinase erbB-2 (P04626 whole entry): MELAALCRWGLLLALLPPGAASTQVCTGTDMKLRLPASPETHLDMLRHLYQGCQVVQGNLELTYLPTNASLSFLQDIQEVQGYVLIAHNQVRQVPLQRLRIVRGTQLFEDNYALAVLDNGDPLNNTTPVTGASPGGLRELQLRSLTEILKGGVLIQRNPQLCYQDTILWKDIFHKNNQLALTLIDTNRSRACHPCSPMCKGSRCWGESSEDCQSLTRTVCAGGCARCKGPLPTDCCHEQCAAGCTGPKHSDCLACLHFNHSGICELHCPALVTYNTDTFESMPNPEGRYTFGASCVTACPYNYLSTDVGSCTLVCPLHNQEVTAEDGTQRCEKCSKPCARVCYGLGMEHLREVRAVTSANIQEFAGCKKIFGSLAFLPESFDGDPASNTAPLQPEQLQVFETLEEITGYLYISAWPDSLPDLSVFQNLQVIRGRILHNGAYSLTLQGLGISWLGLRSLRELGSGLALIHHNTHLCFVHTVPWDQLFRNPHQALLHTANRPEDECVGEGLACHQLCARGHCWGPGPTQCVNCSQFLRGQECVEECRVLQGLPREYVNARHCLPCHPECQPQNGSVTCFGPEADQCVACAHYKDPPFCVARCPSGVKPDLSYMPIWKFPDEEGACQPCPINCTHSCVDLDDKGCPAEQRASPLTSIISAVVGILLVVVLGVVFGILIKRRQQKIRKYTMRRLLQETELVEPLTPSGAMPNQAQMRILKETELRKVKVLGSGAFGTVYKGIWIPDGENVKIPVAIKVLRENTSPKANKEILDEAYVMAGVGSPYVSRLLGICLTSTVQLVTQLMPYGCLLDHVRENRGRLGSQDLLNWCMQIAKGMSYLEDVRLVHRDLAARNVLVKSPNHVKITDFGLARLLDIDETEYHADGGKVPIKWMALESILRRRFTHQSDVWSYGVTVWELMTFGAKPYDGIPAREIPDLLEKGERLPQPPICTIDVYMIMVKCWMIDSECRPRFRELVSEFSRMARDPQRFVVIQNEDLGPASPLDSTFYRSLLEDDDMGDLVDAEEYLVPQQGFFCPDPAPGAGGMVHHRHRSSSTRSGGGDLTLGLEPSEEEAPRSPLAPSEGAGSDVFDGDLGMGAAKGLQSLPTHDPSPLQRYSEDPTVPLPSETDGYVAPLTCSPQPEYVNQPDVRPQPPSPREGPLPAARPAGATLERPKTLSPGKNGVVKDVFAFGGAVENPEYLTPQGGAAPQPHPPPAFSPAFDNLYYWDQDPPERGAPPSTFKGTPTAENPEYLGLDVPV
Chain of Mitogen-activated protein kinase 14 (Q16539 whole entry): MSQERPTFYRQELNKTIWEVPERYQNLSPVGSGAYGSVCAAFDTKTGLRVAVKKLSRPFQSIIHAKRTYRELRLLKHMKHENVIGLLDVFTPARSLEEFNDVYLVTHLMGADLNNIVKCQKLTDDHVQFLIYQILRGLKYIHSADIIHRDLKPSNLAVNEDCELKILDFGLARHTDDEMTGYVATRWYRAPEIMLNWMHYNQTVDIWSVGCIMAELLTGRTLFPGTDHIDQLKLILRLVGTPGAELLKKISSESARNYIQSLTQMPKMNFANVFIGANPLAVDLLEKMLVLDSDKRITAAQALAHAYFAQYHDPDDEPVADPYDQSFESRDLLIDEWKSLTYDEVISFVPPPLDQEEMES
Chain of Hepatocyte growth factor receptor (P08581 whole entry): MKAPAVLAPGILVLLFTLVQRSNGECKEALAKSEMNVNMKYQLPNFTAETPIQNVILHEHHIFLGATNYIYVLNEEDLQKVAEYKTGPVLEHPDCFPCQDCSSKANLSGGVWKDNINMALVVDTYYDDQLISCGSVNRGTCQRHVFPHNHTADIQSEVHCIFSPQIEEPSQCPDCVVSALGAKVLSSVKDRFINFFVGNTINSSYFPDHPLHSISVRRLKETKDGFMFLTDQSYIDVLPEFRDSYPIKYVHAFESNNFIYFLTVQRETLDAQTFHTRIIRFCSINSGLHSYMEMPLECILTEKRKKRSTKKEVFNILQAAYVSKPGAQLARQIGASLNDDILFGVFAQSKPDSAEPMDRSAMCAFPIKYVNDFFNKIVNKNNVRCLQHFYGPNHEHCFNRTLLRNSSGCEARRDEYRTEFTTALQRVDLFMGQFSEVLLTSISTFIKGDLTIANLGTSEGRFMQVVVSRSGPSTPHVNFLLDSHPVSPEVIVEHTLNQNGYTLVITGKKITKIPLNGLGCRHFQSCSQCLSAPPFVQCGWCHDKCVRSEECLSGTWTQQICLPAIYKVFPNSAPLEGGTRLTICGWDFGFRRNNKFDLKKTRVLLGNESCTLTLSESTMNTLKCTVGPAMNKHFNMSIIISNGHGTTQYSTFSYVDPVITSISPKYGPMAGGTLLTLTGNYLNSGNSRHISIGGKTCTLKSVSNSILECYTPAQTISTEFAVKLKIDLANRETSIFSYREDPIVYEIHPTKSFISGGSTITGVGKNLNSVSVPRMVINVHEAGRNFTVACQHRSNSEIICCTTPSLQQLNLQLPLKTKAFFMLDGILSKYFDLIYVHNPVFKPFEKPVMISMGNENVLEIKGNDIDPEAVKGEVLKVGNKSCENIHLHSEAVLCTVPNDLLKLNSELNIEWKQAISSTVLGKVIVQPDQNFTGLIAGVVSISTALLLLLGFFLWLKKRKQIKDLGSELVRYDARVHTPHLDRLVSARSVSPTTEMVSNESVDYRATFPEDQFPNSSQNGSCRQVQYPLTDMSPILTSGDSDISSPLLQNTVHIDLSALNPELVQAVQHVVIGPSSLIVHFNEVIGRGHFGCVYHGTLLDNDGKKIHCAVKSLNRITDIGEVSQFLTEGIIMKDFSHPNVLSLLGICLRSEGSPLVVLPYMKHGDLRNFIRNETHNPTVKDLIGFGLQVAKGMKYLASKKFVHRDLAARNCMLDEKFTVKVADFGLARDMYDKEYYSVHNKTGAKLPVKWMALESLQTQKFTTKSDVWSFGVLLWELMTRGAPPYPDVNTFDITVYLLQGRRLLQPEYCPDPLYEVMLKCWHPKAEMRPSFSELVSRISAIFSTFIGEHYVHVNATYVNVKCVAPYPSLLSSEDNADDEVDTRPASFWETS
Chain of MAP kinase-activated protein kinase 2 (P49137 whole entry): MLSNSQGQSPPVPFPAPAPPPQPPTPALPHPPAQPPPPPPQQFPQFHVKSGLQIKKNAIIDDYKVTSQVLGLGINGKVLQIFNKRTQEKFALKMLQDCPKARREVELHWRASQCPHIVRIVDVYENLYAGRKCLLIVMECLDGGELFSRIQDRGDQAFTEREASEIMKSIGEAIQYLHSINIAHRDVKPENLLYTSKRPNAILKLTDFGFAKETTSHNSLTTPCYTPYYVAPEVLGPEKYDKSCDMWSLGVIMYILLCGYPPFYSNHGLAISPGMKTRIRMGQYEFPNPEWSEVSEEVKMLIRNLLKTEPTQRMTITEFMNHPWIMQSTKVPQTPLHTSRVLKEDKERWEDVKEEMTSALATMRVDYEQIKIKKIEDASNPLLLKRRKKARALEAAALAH

For `CCOC(=O)c1cn2ncnc(Nc3ccc(F)c(Cl)c3)c2c1CC`, the IC50 in assay [1] was determined as 90 nM; in assay [2], 2800 nM.

As to `CCOC(=O)c1cc2c(Nc3ccc4c(cnn4Cc4ccccc4)c3)ncnn2c1`, the IC50 came out at 120 nM in assay [1] and 390 nM in assay [2].

In the case of `CCOC(=O)c1cn2ncnc(Nc3ccc4c(cnn4Cc4ccccc4)c3)c2c1C(C)C`, the 50% inhibitory concentration (IC50) in assay [1] is 200 nM; in assay [2], 210 nM.

As for `CCOC(=O)c1cn2ncnc(Nc3ccc4c(cnn4Cc4ccccc4)c3)c2c1CC`, the IC50 came out at 120 nM in assay [1] and 180 nM in assay [2].

With `CCc1c(C(=O)N(C)C)cn2ncnc(Nc3ccc4c(cnn4Cc4ccccc4)c3)c12`, the IC50 stood at 200 nM in assay [1] and 500 nM in assay [2].

`CCc1c(NC(=O)OCCn2ccnc2)cn2ncnc(Nc3ccc4c(cnn4Cc4ccccc4)c3)c12`: the IC50 in assay [1] was 40 nM; in assay [2], 40 nM; in assay [3], more than 25000 nM; in assay [4], more than 10000 nM; in assay [5], more than 25000 nM; in assay [6] it was more than 25000 nM. The compound further showed an IC50 in assay [7] of more than 25000 nM.

`CCc1c(C(=O)NC)cn2ncnc(Nc3ccc4c(cnn4Cc4ccccc4)c3)c12`: the half-maximal inhibitory concentration (IC50) in assay [1] came out at 70 nM; in assay [2], 130 nM.

Take `CCNCc1cn2ncnc(Nc3ccc4c(cnn4Cc4ccccc4)c3)c2c1CC`: the IC50 in assay [1] stood at 7400 nM; in assay [2] it was 9700 nM.

On to `CCOC(=O)c1cn2ncnc(Nc3cccc(Br)c3)c2c1CC`, for which the 50% inhibitory concentration (IC50) came to 60 nM in assay [1] and 3000 nM in assay [2].

Regarding `CCc1c(C(=O)OCCCn2ccnc2)cn2ncnc(Nc3ccc4c(cnn4Cc4ccccc4)c3)c12`, the IC50 in assay [1] was 170 nM; in assay [2], 240 nM.

Regarding `CCOCc1cn2ncnc(Nc3ccc4c(cnn4Cc4ccccc4)c3)c2c1CC`, the IC50 in assay [1] came out at 950 nM; in assay [2], 1400 nM.

`CCc1c(C(=O)NCCCn2ccnc2)cn2ncnc(Nc3ccc4c(cnn4Cc4ccccc4)c3)c12`: the IC50 in assay [1] worked out at 40 nM; in assay [2], 30 nM.

Consider `CCc1c(CC(=O)O)cn2ncnc(Nc3ccc4c(cnn4Cc4ccccc4)c3)c12`, for which the IC50 amounted to 1600 nM in assay [1] and 680 nM in assay [2].

With `CCc1c(CO)cn2ncnc(Nc3ccc4c(cnn4Cc4ccccc4)c3)c12`, the IC50 in assay [1] was determined as 490 nM; in assay [2], 730 nM.

Consider `CCc1c(C(N)=O)cn2ncnc(Nc3ccc4c(cnn4Cc4ccccc4)c3)c12`, for which the figures for the half-maximal inhibitory concentration (IC50) in assay [1] and in assay [2] were 120 nM and 110 nM, respectively.

On to `CCOC(=O)c1cn2ncnc(Nc3ccc(Oc4ccccc4)cc3)c2c1CC`, for which the half-maximal inhibitory concentration (IC50) in assay [1] is 610 nM; in assay [2], 820 nM.

With `CCOC(=O)c1cn2ncnc(Nc3ccc4[nH]ncc4c3)c2c1CC`, the IC50 in assay [2] was 3300 nM.

On to `CCOC(=O)c1cn2ncnc(Nc3ccc4c(cnn4Cc4ccccc4)c3)c2c1Cc1ccccc1`, for which the IC50 in assay [1] and in assay [2] was more than 25000 nM throughout.

`CCc1c(C(=O)O)cn2ncnc(Nc3ccc4c(cnn4Cc4ccccc4)c3)c12`: the IC50 in assay [1] is 20 nM; in assay [2], 40 nM.

`CCc1c(CC(N)=O)cn2ncnc(Nc3ccc4c(cnn4Cc4ccccc4)c3)c12`: the IC50 in assay [1] came to 1100 nM; in assay [2] it was 2400 nM.

`CCc1c(NC(=O)OCc2ccccc2)cn2ncnc(Nc3ccc4c(cnn4Cc4ccccc4)c3)c12`: the concentration for half-maximal inhibition (IC50) is 210 nM in assay [1] and 170 nM in assay [2].

In the case of `CCCc1c(C(=O)OCC)cn2ncnc(Nc3ccc4c(cnn4Cc4ccccc4)c3)c12`, the 50% inhibitory concentration (IC50) was found to be 950 nM in assay [1] and 1200 nM in assay [2].

`CCOC(=O)c1cn2ncnc(NCc3ccccc3)c2c1CC`: the IC50 in assay [1] stood at 200 nM; in assay [2], 7200 nM.
